Reference: article PMC9779606, “Synthesis, Structural Characterization and Biological Activity Evaluation of Novel Cu(II) Complexes with 3-(trifluoromethyl)phenylthiourea Derivatives” (International Journal of Molecular Sciences, 2022)
In brackets after ≈: the same amount, converted by molar mass. Where two headings read alike, the source gives them in different places.

Columns and labels:
[1] = test system: HaCaT (immortalized human keratinocytes); test: Cytotoxicity, MTT assay; type: cell-based; settings: normal cells, 72 h, mean SD
Experimental: (§1) MTT assay was performed as previously described. Experiments were repeated three times. […] Decreased relative MTT level means decreased cell viability.

[2] = test system: SW620 (metastatic colon cancer); test: Cytotoxicity, MTT assay; type: cell-based, human; settings: 72 h, mean SD
Experimental: as §1

[3] = test system: SW480 (primary colon cancer); test: Cytotoxicity, MTT assay; type: cell-based, human; settings: mean SD
Experimental: as §1

M. tuberculosis H37Rv = test: Tuberculostatic activity, Microplate Alamar Blue Assay (MABA); type: cell-based, Mycobacterium tuberculosis; settings: Mycobacterium tuberculosis
[4] = test system: M. tuberculosis Spec. 192; test: as above; type: cell-based, Mycobacterium tuberculosis; settings: Mycobacterium tuberculosis
[5] = test system: 30 clinically isolated strains of S. aureus and S. epidermidis; design: method as in PMID 28822236, PMID 29499458; settings: cited from earlier work
[6] = M. tuberculosis H37Rv, standard strain, MABA, read-out: MIC
[7] = M. tuberculosis Spec. 192, patient isolate fully sensitive to tuberculostatics, MABA, read-out: MIC

N.N.[Cl][Pt][Cl] [Cisplatin, cisplatin, reference compound]
IC50 [1]: 6.3 ± 0.7 µM | IC50 [2]: 6.7 ± 1.1 µM | IC50 ([3]; 72 h): 10.4 µM

COc1cccc2c1C(=O)c1c(O)c3c(c(O)c1C2=O)C[C@@](O)(C(=O)CO)C[C@@H]3O[C@H]1C[C@H](N)[C@H](O)[C@H](C)O1 [Doxorubicin, doxorubicin, reference compound]
IC50 ([1]; Homo sapiens, HaCaT): 0.29 ± 0.11 µM | IC50 ([3]; Homo sapiens, SW480, 72 h): 0.75 ± 0.1 µM

CC[C@@H](CO)NCCN[C@@H](CC)CO [Ethambutol (EMB), Ethambutol, reference compound]
MIC (M. tuberculosis H37Rv; [6]): 2 µg/mL (≈ 9.79 µM) | MIC [4, 7]: 2 µg/mL (≈ 9.79 µM)

NNC(=O)c1ccncc1 [Isoniazid (INH), Isoniazid, reference compound]
MIC (M. tuberculosis H37Rv; H37RV): 0.125 µg/mL (≈ 0.911 µM) | MIC ([4]; SPEC.192): 0.125 µg/mL (≈ 0.911 µM)

CO[C@H]1/C=C/O[C@@]2(C)Oc3c(C)c(O)c4c(O)c(c(/C=N/N5CCN(C)CC5)c(O)c4c3C2=O)NC(=O)/C(C)=C\C=C\[C@H](C)[C@H](O)[C@@H](C)[C@@H](O)[C@@H](C)[C@H](OC(C)=O)[C@@H]1C [Rifampicin (RMP), Rifampicin, reference compound]
MIC (M. tuberculosis H37Rv; [6]): 1 µg/mL (≈ 1.22 µM) | MIC [4, 7]: 1 µg/mL (≈ 1.22 µM)

[H]/N=C(/N)N[C@H]1[C@H](O)[C@@H](O)[C@H](O[C@@H]2O[C@@H](C)[C@](O)(C=O)[C@H]2O[C@@H]2O[C@@H](CO)[C@H](O)[C@@H](O)[C@@H]2NC)[C@@H](N/C(N)=N\[H])[C@@H]1O [Streptomycin (SM), Streptomycin, reference compound]
MIC (M. tuberculosis H37Rv; [6]): 1 µg/mL (≈ 1.72 µM) | MIC [4, 7]: 1 µg/mL (≈ 1.72 µM)

complex with 1-1-(3,4-dichlorophenyl)-3-[3-(trifluoromethyl) phenyl]thiourea
MIC [5]: 0.5 to 2 µg/mL
